{"source": "paper PMC3494675", "about": "“Structure-Function Analysis of the Glioma Targeting NFL-TBS.40-63 Peptide Corresponding to the Tubulin-Binding Site on the Light Neurofilament Subunit” (PLoS ONE, 2012)", "key": {"[1]": {"test_system": "T98G human glioblastoma cells", "assay": "Peptide incorporation into T98G cells (immunocytochemistry, cell counting)", "type": "cell-based", "outline": "(§1)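 Cells on cover slips were cultured 6 h with 10 μM biotinylated peptide, permeabilized, and stained with anti-β-tubulin plus fluorescent streptavidin. By fluorescence/confocal microscopy, ≥200 cells per experiment were scored for peptide uptake and for a normal versus destroyed microtubule network; at least three repeats.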"}, "[2]": {"assay": "Secondary structure estimation from CD spectra", "type": "physicochemical", "details": "Reed's reference set", "description": "(§2) Circular dichroism (CD) spectra were measured in a J-810 CD spectrometer (Jasco, Japan) in step mode (bandwidth: 2 nm; interval: 0.1 nm; response time: 0.125 s). The spectra were averaged over 3 scans to increase the signal to noise ratio. To optimize the measurements, a 1 cm×0.2 cm mini-quartz cell with four windows (Hellema, Germany) was used in such a way that the spectra from 260 to 200 nm were measured with a 1 cm pathlength and those between 220 and 185 nm with 0.2 cm pathlength. After normalization for pathlength (1 cm), the superimposition of two separated spectra in the 200–220 nm region was verified and the entire spectra reconstituted. The temperature of measurement was controlled with a Peltier-effect temperature controller, and was usually 20°C. The structural stability of peptides was studied by measuring the variation in CD signal at 220 nm (bandwidth: 10 nm; interval: 1 s; response time: 0.5 s; pathlength: 1 cm) when the temperature was increased by 1°C/min from 20 to 85°C. All the CD experiments were performed with 20 µM peptide under 3 buffer conditions: pure water, 2 mM SDS and 10 mM potassium phosphate pH 7.4 with 200 mM KF.\nThe secondary structures were estimated from the CD spectra with Jasco secondary structure estimation software. The spectra from […] were decomposed to α-helix, β-sheet, β-turn and random coil elements using either Reed's or Yang's reference set as reference spectrum of each element as described, [38]. We usually obtained better fits using Reed's reference."}, "[3]": {"test_system": "Human adrenal carcinoma SW13 cells", "assay": "Effect on MT network of SW13 cells (immunocytochemistry)", "type": "cell-based", "details": "10 µM, 6 hours", "description": "(§3) Figure 1 Internalization and effects on glioblastoma T98G cells of the wild type peptide NFL-TBS.40-63 and peptides from the alanine scan. (A): Human glioblastoma T98G cells were incubated in the presence of different peptides at 10 µM during 6 hours. MTs were detected by immunostaining using an anti-tubulin antibody (red), and biotinylated peptides were detected using Alexa-labeled avidin (green). While the original NFL-TBS.40-63 peptide is able to penetrate in these cells, the replacement of valine-14 by alanine typically abolished this property. White bars, 20 µm. (B) Human adrenal carcinoma SW13 cells were incubated in the presence of NFL-TBS.40-63 peptide (10 µM, 6 hours). MTs appear in red, peptide in green, nuclei in blue. White bars, 20 µm. (C): We quantified by microscopy the percentage of T98G cells containing the peptide and those with a destroyed MT network. Experiments were triplicated and a minimum of 200 cells was examined in each experiment. Data are presented as mean and S.E.M. (bars). Asterisks indicate significant level versus control: * p<0.05; ** p<0.005; *** p<0.001. As glioblastoma cells are known to have multiple mutations and abnormalities, the shaded area corresponds to the percentage of cells where MTs are disorganized even in the absence of peptide.\n(§4) Cells were plated on cover slips and cultured in media containing biotinylated peptides (10 µM) for 6 hours. […]"}, "[4]": {"test_system": "T98G human glioblastoma cells", "assay": "Disintegration of the microtubule network in T98G cells (anti-tubulin immunostaining, cell counting)", "type": "cell-based", "details": "T98G cells, 10 µM biotinylated peptide, 6 hours; anti-tubulin immunostaining; minimum 200 cells per experiment; mean ± S.E.M., triplicated", "outline": "as §1"}, "[5]": {"assay": "Structural (thermal) stability by circular dichroism at 220 nm", "type": "physicochemical", "description": "as §2, with “The structural stability of peptides was studied by measuring the variation in CD signal at 220 nm (bandwidth: 10 nm; interval: 1 s; response time: 0.5 s; pathlength: 1 cm) when the temperature was increased by 1°C/min from 20 to 85°C.” left out"}, "[6]": {"test_system": "Human adrenal carcinoma SW13 cells", "assay": "Peptide entry into SW13 cells (immunocytochemistry)", "type": "cell-based", "details": "10 µM, 6 hours", "description": "as §3, §4"}, "[7]": {"details": "KF/phosphate buffer pH 7.4, 20 µM"}}, "note": "Peptide text beside a SMILES is read from it. * marks the point of attachment. Biotin = O=C1N[C@H]2[C@H](CS[C@H]2CCCCC(=O)*)N1"}
{"smiles": "CC(C)C[C@H](NC(=O)[C@H](CO)NC(=O)[C@H](CO)NC(=O)[C@H](CO)NC(=O)[C@@H](NC(=O)[C@@H]1CCCN1C(=O)[C@H](C)NC(=O)[C@H](CO)NC(=O)[C@H](Cc1ccc(O)cc1)NC(=O)[C@H](CO)NC(=O)[C@H](CO)NC(=O)[C@H](Cc1ccc(O)cc1)NC(=O)CCCC[C@@H]1SC[C@@H]2NC(=O)N[C@@H]21)C(C)C)C(=O)N[C@@H](CO)C(=O)N[C@H](C(=O)N[C@@H](CCCNC(=N)N)C(=O)N[C@@H](CCCNC(=N)N)C(=O)N[C@@H](CO)C(=O)N[C@@H](Cc1ccc(O)cc1)C(=O)N[C@@H](CO)C(=O)N[C@@H](CO)C(=O)N[C@@H](CO)C(=O)N[C@@H](CO)C(=O)NCC(=O)N[C@@H](CO)C(N)=O)C(C)C", "note": "[NFL-TBS.40-63] (Biotin-YSSYSAPVSSSLSVRRSYSSSSGS-NH2)", "values": [{"measurement": "Peptide incorporation (% of cells)", "setting": "[1]; T98G cells, 10 µM biotinylated peptide, 6 hours, Alexa-labeled avidin/streptavidin fluorescence microscopy, minimum 200 cells per experiment, mean ± S.E.M., triplicated", "result": "51.2±4.2 % of cells"}, {"measurement": "Cell penetration of the peptide once heated", "setting": "[1]; peptide heated in KF/phosphate buffer (thermally unfolded)", "result": "could not penetrate into the cells"}, {"measurement": "random coil content", "setting": "[2]; 2 mM SDS, 20 µM", "result": 40, "unit": "%"}, {"measurement": "α-helix content", "setting": "[2]; 2 mM SDS, 20 µM", "result": 20, "unit": "%"}, {"measurement": "β-sheet content", "setting": "[2]; 2 mM SDS, 20 µM", "result": 40, "unit": "%"}, {"measurement": "random coil content", "setting": "[2]; [7]", "result": 36, "unit": "%"}, {"measurement": "α-helix content", "setting": "[2]; [7]", "result": 7, "unit": "%"}, {"measurement": "β-sheet content", "setting": "[2]; [7]", "result": 56, "unit": "%"}, {"measurement": "random coil content", "setting": "[2]; pure water, 20 µM, 20°C", "result": 75, "unit": "%"}, {"measurement": "β-sheet content", "setting": "[2]; pure water, 20 µM, 20°C", "result": 25, "unit": "%"}, {"measurement": "Effect on MT network of SW13 cells", "setting": "[3]", "result": "without affecting the MT network"}, {"measurement": "Disintegration of MT (% of cells)", "setting": "[4]", "result": "58.4±2.3 % of cells"}, {"measurement": "Refolding on lowering temperature", "setting": "[5]; CD 220 nm, KF/phosphate buffer, 70 to 10°C at 1°C per min and after 12 hours at 20°C", "result": "no refolding was observed"}, {"measurement": "Tm of thermal unfolding", "setting": "[5]; CD signal at 220 nm, 20 µM peptide, KF/phosphate buffer (10 mM potassium phosphate pH 7.4, 200 mM KF), 1°C/min", "result": "about 40 °C"}, {"measurement": "Structural stability with increasing temperature", "setting": "[5]; CD, 20 µM peptide in 2 mM SDS, up to 70°C", "result": "stable"}, {"measurement": "Entry into SW13 cells", "setting": "[6]", "result": "enters in SW13 cells"}]}
